Assay results reported in patent US12161666B2, “Composition comprising cinnamaldehyde and zinc to improve swallowing” (SOCIÉTÉ DES PRODUITS NESTLÉ S.A., priority 2014, dated 2024).

Experiments:
[1] = oral administration; cited from earlier work
[2] = target: T1, hTRPA1 expressed in CHO cells (Homo sapiens, UniProt O75762); experiment: in vitro activity of hTRPA1 expressed in CHO cells, intracellular calcium measured with a fluorescent dye; type: cell-based; design: efficacy on hTRPA1 according to dose-response curve: dose or concentration left out as unconfirmed
T1 construct: expressed in transfected cells; host or cells: CHO cells
Description: The in vitro activity of hTRPA1 expressed in CHO cells was measured for 10 μM cinnamaldehyde and 0.3 μM zinc individually, as well as the combination.

TRPM8 = TRPM8 (Homo sapiens, UniProt Q7Z2W7); details: cited from earlier work
TRPV1 = TRPV1 (Homo sapiens, UniProt Q8NER1); details: cited from earlier work
TRPA1 = TRPA1 (Homo sapiens, UniProt O75762); details: read-out: EC50 of TRPA1 activation; cited from earlier work
TRPA1, sequence (O75762 whole entry, species assumed): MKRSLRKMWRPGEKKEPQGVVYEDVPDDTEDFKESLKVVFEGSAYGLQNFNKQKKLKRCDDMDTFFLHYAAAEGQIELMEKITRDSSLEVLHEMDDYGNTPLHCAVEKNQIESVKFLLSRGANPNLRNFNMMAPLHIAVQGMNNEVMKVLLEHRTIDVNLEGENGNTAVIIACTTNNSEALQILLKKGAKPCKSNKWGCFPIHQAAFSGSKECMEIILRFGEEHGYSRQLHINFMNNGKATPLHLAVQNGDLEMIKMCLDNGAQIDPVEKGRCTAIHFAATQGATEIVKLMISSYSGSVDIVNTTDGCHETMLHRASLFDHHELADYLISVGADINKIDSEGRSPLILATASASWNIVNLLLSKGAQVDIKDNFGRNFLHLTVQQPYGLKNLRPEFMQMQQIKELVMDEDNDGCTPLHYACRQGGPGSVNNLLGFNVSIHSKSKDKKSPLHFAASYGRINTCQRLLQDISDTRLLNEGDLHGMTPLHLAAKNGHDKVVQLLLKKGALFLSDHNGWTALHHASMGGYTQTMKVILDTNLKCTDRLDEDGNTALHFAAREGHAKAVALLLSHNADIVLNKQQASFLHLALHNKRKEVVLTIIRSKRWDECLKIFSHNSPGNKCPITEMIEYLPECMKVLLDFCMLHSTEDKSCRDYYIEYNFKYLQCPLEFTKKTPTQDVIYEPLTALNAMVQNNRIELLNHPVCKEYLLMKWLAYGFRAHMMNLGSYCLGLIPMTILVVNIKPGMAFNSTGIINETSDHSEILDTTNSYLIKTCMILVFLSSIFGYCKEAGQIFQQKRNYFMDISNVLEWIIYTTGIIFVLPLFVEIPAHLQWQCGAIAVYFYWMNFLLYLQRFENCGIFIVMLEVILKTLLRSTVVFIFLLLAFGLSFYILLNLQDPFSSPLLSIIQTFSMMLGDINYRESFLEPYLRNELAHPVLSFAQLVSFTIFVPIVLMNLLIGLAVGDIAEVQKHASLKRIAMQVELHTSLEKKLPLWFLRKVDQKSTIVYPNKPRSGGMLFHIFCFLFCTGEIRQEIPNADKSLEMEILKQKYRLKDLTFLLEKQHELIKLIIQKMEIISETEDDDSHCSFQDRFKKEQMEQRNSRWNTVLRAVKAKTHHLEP

T1 sequence (O75762 whole entry): as the sequence (O75762 whole entry, species assumed) above
TRPV1, sequence (Q8NER1 whole entry, species assumed): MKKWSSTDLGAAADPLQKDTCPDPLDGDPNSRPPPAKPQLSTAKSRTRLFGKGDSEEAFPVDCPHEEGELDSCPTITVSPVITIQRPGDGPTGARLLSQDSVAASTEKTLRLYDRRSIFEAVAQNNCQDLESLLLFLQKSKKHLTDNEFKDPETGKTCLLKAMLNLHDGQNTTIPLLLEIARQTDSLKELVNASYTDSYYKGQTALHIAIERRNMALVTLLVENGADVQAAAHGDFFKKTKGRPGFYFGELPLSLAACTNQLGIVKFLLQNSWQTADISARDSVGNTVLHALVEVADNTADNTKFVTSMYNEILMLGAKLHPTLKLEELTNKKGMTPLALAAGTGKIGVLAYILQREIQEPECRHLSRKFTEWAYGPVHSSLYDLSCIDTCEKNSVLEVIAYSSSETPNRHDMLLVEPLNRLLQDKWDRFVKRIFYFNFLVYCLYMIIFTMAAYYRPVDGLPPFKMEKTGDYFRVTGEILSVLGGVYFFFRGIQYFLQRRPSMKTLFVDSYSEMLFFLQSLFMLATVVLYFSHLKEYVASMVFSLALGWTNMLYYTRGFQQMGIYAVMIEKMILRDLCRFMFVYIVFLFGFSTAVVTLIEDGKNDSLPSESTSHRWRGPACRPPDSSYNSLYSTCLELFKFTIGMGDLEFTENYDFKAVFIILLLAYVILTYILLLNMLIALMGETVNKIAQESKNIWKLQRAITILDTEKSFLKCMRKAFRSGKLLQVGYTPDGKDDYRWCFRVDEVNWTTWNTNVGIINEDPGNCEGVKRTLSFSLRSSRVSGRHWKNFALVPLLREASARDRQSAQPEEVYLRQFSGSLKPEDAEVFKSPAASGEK
TRPM8, sequence (Q7Z2W7 whole entry, species assumed): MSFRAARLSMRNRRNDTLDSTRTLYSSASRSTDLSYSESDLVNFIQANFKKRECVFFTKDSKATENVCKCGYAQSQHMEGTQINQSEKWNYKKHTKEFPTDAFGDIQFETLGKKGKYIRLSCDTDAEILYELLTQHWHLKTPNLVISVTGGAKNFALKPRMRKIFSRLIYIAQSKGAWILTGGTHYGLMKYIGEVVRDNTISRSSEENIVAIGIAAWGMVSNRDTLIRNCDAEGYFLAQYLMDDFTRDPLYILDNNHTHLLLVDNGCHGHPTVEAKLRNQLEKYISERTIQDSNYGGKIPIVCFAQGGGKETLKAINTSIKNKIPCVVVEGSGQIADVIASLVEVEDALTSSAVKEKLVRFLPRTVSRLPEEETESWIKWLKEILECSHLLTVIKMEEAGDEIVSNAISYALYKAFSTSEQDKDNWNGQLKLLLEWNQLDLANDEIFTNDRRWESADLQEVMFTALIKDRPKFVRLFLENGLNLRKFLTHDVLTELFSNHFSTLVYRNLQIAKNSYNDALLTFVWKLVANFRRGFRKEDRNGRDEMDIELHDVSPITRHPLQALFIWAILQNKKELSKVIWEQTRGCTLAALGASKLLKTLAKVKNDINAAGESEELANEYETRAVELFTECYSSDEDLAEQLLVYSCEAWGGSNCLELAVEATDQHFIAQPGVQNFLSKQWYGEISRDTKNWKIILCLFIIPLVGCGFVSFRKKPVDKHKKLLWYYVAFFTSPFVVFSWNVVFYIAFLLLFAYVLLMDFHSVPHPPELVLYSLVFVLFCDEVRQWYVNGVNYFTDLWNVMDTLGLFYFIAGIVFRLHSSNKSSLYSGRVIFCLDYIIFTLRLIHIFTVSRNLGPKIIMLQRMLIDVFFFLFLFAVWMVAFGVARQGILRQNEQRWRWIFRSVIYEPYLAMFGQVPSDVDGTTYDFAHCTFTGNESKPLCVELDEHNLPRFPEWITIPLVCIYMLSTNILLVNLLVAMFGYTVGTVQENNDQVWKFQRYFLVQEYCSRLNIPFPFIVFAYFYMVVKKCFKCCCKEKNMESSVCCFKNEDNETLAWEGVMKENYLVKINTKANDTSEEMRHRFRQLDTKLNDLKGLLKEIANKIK

COc1cc(CNC(=O)CCCC/C=C/C(C)C)ccc1O [capsaicin]
promotion of swallow reflex [1]: shown to promote a swallow reflex

zinc
concentration of zinc required for the synergy with cinnamaldehyde on TRPA1 ([2]; in vitro): < 1 µM

O=CC=Cc1ccccc1 [cinnamaldehyde]
activation of TRPM8 (TRPM8): not TRPV1 or TRPM8
activation of TRPV1 (TRPV1): not TRPV1
efficacy on hTRPA1 according to dose-response curve ([2]; positive control C+, CHO cells): maximum efficacy
EC50 (TRPA1): ~10 µM
